Experimental data taken from ChEMBL document CHEMBL3751837, “Synthesis of tetravalent LacNAc-glycoclusters as high-affinity cross-linker against Erythrina cristagalli agglutinin” (Bioorg Med Chem, 2016).
The source made the active and inactive calls. The calls are words filed in the database; no cut-off is given here.

What was measured:
Erythrina crista-galli [1] = assay: Inhibition of Erythrina crista-galli agglutinin-mediated hemagglutination assessed as concentration of LacNAc unit after 40 mins in presence of rabbit erythrocytes; format: cell-based
Erythrina crista-galli [2] = assay: Inhibition of Erythrina crista-galli agglutinin-mediated hemagglutination after 40 mins in presence of rabbit erythrocytes; format: cell-based
Erythrina crista-galli [3] = assay: Inhibition of Erythrina crista-galli agglutinin-mediated hemagglutination assessed as concentration of LacNAc unit after 40 mins in presence of rabbit erythrocytes relative to LacNAc; format: cell-based
[4] = Binding affinity to Erythrina crista-galli agglutinin by isothermal titration calorimetry analysis
Erythrina crista-galli [5] = assay: Binding affinity to Erythrina crista-galli agglutinin by isothermal titration calorimetry analysis relative to 3-TFAP-beta-LacNAc
Erythrina crista-galli [6] = assay: Binding affinity to Erythrina crista-galli agglutinin at 0.625 to 480 uM by quantitative precipitation assay
Erythrina crista-galli [7] = assay: Binding affinity to Erythrina crista-galli agglutinin assessed as particle size by measuring DLS volume hydrodynamic diameter centered positions at 10 uM by dynamic light scattering analysis (reference value: 8.2 nanometer)
Erythrina crista-galli [8] = assay: Binding affinity to Erythrina crista-galli agglutinin assessed as particle size by measuring DLS volume hydrodynamic diameter centered positions at 5 uM by dynamic light scattering analysis (reference value: 8.2 nanometer)
Erythrina crista-galli [9] = assay: Binding affinity to Erythrina crista-galli agglutinin at 0.625 to 480 uM by dynamic light scattering analysis
Erythrina crista-galli [10] = assay: Binding affinity to Erythrina crista-galli agglutinin assessed as formation of large aggregate at 5 to 10 uM by dynamic light scattering analysis
Erythrina crista-galli [11] = assay: Binding affinity to Erythrina crista-galli agglutinin assessed as particle size by measuring DLS volume hydrodynamic diameter centered positions at 20 uM by dynamic light scattering analysis (reference value: 8.2 nanometer)
Erythrina crista-galli [12] = assay: Binding affinity to Erythrina crista-galli agglutinin assessed as particle size by measuring DLS volume hydrodynamic diameter centered positions at 240 uM by dynamic light scattering analysis (reference value: 8.2 nanometer)
Erythrina crista-galli [13] = assay: Binding affinity to Erythrina crista-galli agglutinin assessed as particle size by measuring DLS volume hydrodynamic diameter centered positions at 2.5 uM by dynamic light scattering analysis (reference value: 8.2 nanometer)

SMILES | MIC (Erythrina crista-galli [1]) | MIC (Erythrina crista-galli [2]) | Kd [4] | Ratio (Erythrina crista-galli [5]) | Activity (Erythrina crista-galli [6]) | Activity (Erythrina crista-galli [7]) | Activity (Erythrina crista-galli [8]) | Activity (Erythrina crista-galli [9]) | Activity (Erythrina crista-galli [10]) | Activity (Erythrina crista-galli [11]) | Activity (Erythrina crista-galli [12]) | Activity (Erythrina crista-galli [13]) | Ratio (Erythrina crista-galli [3])
CC(=O)N[C@H]1[C@H](OCCCCCNC(=O)CCCSSCCCC(=O)NCCCCCO[C@@H]2O[C@H](CO)[C@@H](O[C@@H]3O[C@H](CO)[C@@H](O)[C@H](O)[C@H]3O)[C@H](O)[C@H]2NC(C)=O)O[C@H](CO)[C@@H](O[C@@H]2O[C@H](CO)[C@@H](O)[C@H](O)[C@H]2O)[C@@H]1O | 3 µM | 1.5 µM | 17.5 µM | 2 | 20% |  |  |  |  |  |  |  | 8
CC(=O)N[C@H]1[C@H](OCCCNC(=O)C[C@H](NC(=O)CCCCCCCCCCCCCCCCC(=O)N[C@@H](CC(=O)NCCCO[C@@H]2O[C@H](CO)[C@@H](O[C@@H]3O[C@H](CO)[C@@H](O)[C@H](O)[C@H]3O)[C@H](O)[C@H]2NC(C)=O)C(=O)NCCCO[C@@H]2O[C@H](CO)[C@@H](O[C@@H]3O[C@H](CO)[C@@H](O)[C@H](O)[C@H]3O)[C@H](O)[C@H]2NC(C)=O)C(=O)NCCCO[C@@H]2O[C@H](CO)[C@@H](O[C@@H]3O[C@H](CO)[C@@H](O)[C@H](O)[C@H]3O)[C@H](O)[C@H]2NC(C)=O)O[C@H](CO)[C@@H](O[C@@H]2O[C@H](CO)[C@@H](O)[C@H](O)[C@H]2O)[C@@H]1O | 0.76 µM | 0.19 µM | 2.5 µM | 14.1 | 95% | 1510 nm | 1110 nm | Active | Active | 2030 nm | 788 nm |  | 32
CC(=O)N[C@H]1[C@H](OCCOCCNC(=O)CN(CCOCCOCCN(CC(=O)NCCOCCO[C@@H]2O[C@H](CO)[C@@H](O[C@@H]3O[C@H](CO)[C@@H](O)[C@H](O)[C@H]3O)[C@H](O)[C@H]2NC(C)=O)CC(=O)NCCOCCO[C@@H]2O[C@H](CO)[C@@H](O[C@@H]3O[C@H](CO)[C@@H](O)[C@H](O)[C@H]3O)[C@H](O)[C@H]2NC(C)=O)CC(=O)NCCOCCO[C@@H]2O[C@H](CO)[C@@H](O[C@@H]3O[C@H](CO)[C@@H](O)[C@H](O)[C@H]3O)[C@H](O)[C@H]2NC(C)=O)O[C@H](CO)[C@@H](O[C@@H]2O[C@H](CO)[C@@H](O)[C@H](O)[C@H]2O)[C@@H]1O | 12 µM | 3 µM | 7.2 µM | 4.9 | Active |  |  |  |  |  |  |  | 2
CC(=O)N[C@H]1[C@H](OCCCCCNC(=O)CCCCCNC(=O)CCCSSCCCC(=O)NCCCCCC(=O)NCCCCCO[C@@H]2O[C@H](CO)[C@@H](O[C@@H]3O[C@H](CO)[C@@H](O)[C@H](O)[C@H]3O)[C@H](O)[C@H]2NC(C)=O)O[C@H](CO)[C@@H](O[C@@H]2O[C@H](CO)[C@@H](O)[C@H](O)[C@H]2O)[C@@H]1O | 3 µM | 1.5 µM | 15.6 µM | 2.3 | 41% |  |  |  |  |  |  |  | 8
CC(=O)N[C@H]1[C@H](OCCCNC(=O)C(F)(F)F)O[C@H](CO)[C@@H](O[C@@H]2O[C@H](CO)[C@@H](O)[C@H](O)[C@H]2O)[C@@H]1O |  |  | 35.2 µM |  | inactive |  |  |  |  |  |  |  | 
CC(=O)N[C@H]1[C@H](OCCCNC(=O)C[C@H](NC(=O)CCCCC(=O)N[C@@H](CC(=O)NCCCO[C@@H]2O[C@H](CO)[C@@H](O[C@@H]3O[C@H](CO)[C@@H](O)[C@H](O)[C@H]3O)[C@H](O)[C@H]2NC(C)=O)C(=O)NCCCO[C@@H]2O[C@H](CO)[C@@H](O[C@@H]3O[C@H](CO)[C@@H](O)[C@H](O)[C@H]3O)[C@H](O)[C@H]2NC(C)=O)C(=O)NCCCO[C@@H]2O[C@H](CO)[C@@H](O[C@@H]3O[C@H](CO)[C@@H](O)[C@H](O)[C@H]3O)[C@H](O)[C@H]2NC(C)=O)O[C@H](CO)[C@@H](O[C@@H]2O[C@H](CO)[C@@H](O)[C@H](O)[C@H]2O)[C@@H]1O | 6 µM | 1.5 µM | 7.2 µM | 4.9 | 95% |  |  |  |  |  |  |  | 4

Further compounds by falling MIC (Erythrina crista-galli [1]), results first:

MIC (Erythrina crista-galli [1]) | MIC (Erythrina crista-galli [2]) | Kd [4] | Ratio (Erythrina crista-galli [5]) | Activity (Erythrina crista-galli [6]) | Activity (Erythrina crista-galli [7]) | Activity (Erythrina crista-galli [8]) | Activity (Erythrina crista-galli [9]) | Activity (Erythrina crista-galli [10]) | Activity (Erythrina crista-galli [11]) | Activity (Erythrina crista-galli [12]) | Activity (Erythrina crista-galli [13]) | SMILES | Ratio (Erythrina crista-galli [3])
24 µM | 24 µM |  |  |  |  |  |  |  |  |  |  | CC(=O)N[C@H]1C(O)O[C@H](CO)[C@@H](O[C@@H]2O[C@H](CO)[C@@H](O)[C@H](O)[C@H]2O)[C@@H]1O (some centres not stated) | 
6 µM | 1.5 µM | 6 µM | 5.9 | Active |  |  |  |  |  |  |  | CC(=O)N[C@H]1[C@H](OCCOCCNC(=O)CCCCCNC(=O)CN(CCOCCOCCN(CC(=O)NCCCCCC(=O)NCCOCCO[C@@H]2O[C@H](CO)[C@@H](O[C@@H]3O[C@H](CO)[C@@H](O)[C@H](O)[C@H]3O)[C@H](O)[C@H]2NC(C)=O)CC(=O)NCCCCCC(=O)NCCOCCO[C@@H]2O[C@H](CO)[C@@H](O[C@@H]3O[C@H](CO)[C@@H](O)[C@H](O)[C@H]3O)[C@H](O)[C@H]2NC(C)=O)CC(=O)NCCCCCC(=O)NCCOCCO[C@@H]2O[C@H](CO)[C@@H](O[C@@H]3O[C@H](CO)[C@@H](O)[C@H](O)[C@H]3O)[C@H](O)[C@H]2NC(C)=O)O[C@H](CO)[C@@H](O[C@@H]2O[C@H](CO)[C@@H](O)[C@H](O)[C@H]2O)[C@@H]1O | 4
3 µM | 0.75 µM | 3.9 µM | 9 | 95% |  |  |  |  |  |  |  | CC(=O)N[C@H]1[C@H](OCCCNC(=O)C[C@H](NC(=O)CCCCCCCCC(=O)N[C@@H](CC(=O)NCCCO[C@@H]2O[C@H](CO)[C@@H](O[C@@H]3O[C@H](CO)[C@@H](O)[C@H](O)[C@H]3O)[C@H](O)[C@H]2NC(C)=O)C(=O)NCCCO[C@@H]2O[C@H](CO)[C@@H](O[C@@H]3O[C@H](CO)[C@@H](O)[C@H](O)[C@H]3O)[C@H](O)[C@H]2NC(C)=O)C(=O)NCCCO[C@@H]2O[C@H](CO)[C@@H](O[C@@H]3O[C@H](CO)[C@@H](O)[C@H](O)[C@H]3O)[C@H](O)[C@H]2NC(C)=O)O[C@H](CO)[C@@H](O[C@@H]2O[C@H](CO)[C@@H](O)[C@H](O)[C@H]2O)[C@@H]1O | 8
0.56 µM | 0.14 µM | 2.3 µM | 15.3 | 95% |  | 1750 nm | Active |  | 2280 nm |  | 1880 nm | CC(=O)N[C@H]1[C@H](OCCCNC(=O)C[C@H](NC(=O)CCCCCNC(=O)CCCCCCCCCCC(=O)NCCCCCC(=O)N[C@@H](CC(=O)NCCCO[C@@H]2O[C@H](CO)[C@@H](O[C@@H]3O[C@H](CO)[C@@H](O)[C@H](O)[C@H]3O)[C@H](O)[C@H]2NC(C)=O)C(=O)NCCCO[C@@H]2O[C@H](CO)[C@@H](O[C@@H]3O[C@H](CO)[C@@H](O)[C@H](O)[C@H]3O)[C@H](O)[C@H]2NC(C)=O)C(=O)NCCCO[C@@H]2O[C@H](CO)[C@@H](O[C@@H]3O[C@H](CO)[C@@H](O)[C@H](O)[C@H]3O)[C@H](O)[C@H]2NC(C)=O)O[C@H](CO)[C@@H](O[C@@H]2O[C@H](CO)[C@@H](O)[C@H](O)[C@H]2O)[C@@H]1O | 43
